Measured values published in patent publication US20100247688A1 (priority 2007, published 2010).
Entries after “also recorded” stand apart in the source; their conditions may differ. Like-named read-outs stand apart in the source and are kept apart here.

Key:
[1] = format: in vivo; details: daily oral gavage, 33 days; AC-91 in four different concentrations
Excerpt: In total 171 female hAPP Tg and nTg mice with an age of 6.5 months at treatment start were enclosed to study.

APPPS1 transgenic mice = experiment: Plaque load, plaque volume and area in APPPS1 transgenic model for cerebral amyloidosis; format: in vivo, mouse; details: for increase of amyloid load as % of that expected with normal progression of the model: AC-92 after 3 months, AC-91 at month 5; for plaque volume and area smaller than vehicle-treated controls: APPPS1 mice
Method: The transgenic model and corresponding […] analysis of brain sections was provided by Prof. Mathias Jucker, Department of Cellular Neurology, Hertie-Institute for Clinical Brain Research University of Tübingen, Otfried-Müller Strasse 27, D-72076 Tübingen, Germany. APPPS1 transgenic mice express both KM670/671NL mutated human APP and L166P mutated human PS1 under the Thy-1 promoter element (Radde et al., 2005). They were treated with the compounds from the age of 126 days after birth (DAB) to 158 DAB. […] On completion of the dosing period, animals were sacrificed by lethal narcosis followed by collection of blood by cardiac puncture and recovery of brain material for sectioning and extraction of drug and relevant peptides. […] Brains were removed and postfixed at 4° C. in 4% PFA, dehydrated in 30% sucrose, and frozen. Serial coronal serial 40 μm sections were cut with a microtome and collected in cryoprotectant (30% glycerol, 45% ethylene glycol in PBS) and stored at −20° C. until use.
Free-floating sections were processed for immunohistochemistry as described elsewhere (Stalder et al., 2005). Briefly, sections were washed in TBS and blocked with 3% goat or donkey serum (Vector Laboratories Inc., Burlingame, Calif.) in 0.3% Triton-X-100 (Fisher, Fair Lawn, N.J.). The sections were incubated overnight with primary antibodies at 4° C. in 2% serum and 0.3% Triton-X-100, washed three times with TBS and incubated for 3 hours with biotin-conjugated secondary antibodies. After repeated TBS washing, sections were stained by complexing with SG blue (Vectastain ABC elite kit; Vector Laboratories). Sections were mounted on precleaned glass microscope slides (Superfrost® Plus; Langenbrinck, Teningen, Germany), dehydrated with an alcohol series, cleared in xylene and coverslipped in a xylene soluble mounting medium (Pertex®, medite GmbH, Burgdorf, Germany). Amyloid load was estimated on every 12th section throughout the entire neocortex.
In vivo experiments were performed using a very aggressive double transgenic mouse model for cerebral amyloidosis (Radde et al., 2006). APPPS1 transgenic mice expressing both KM670/671NL mutated human APP and L166P mutated human PS1 under the Thy-1 promoter element (Radde et al., 2005) were treated with the compounds from the age of 126 days after birth (DAB) to 158 DAB. Mice were treated as described in A3. above. On completion of the dosing period, samples were taken from the animals and snap frozen using liquid nitrogen as reported herein previously (see Section A3. above).
In the model, plaque load in the brain is known to increase roughly exponentially with age (Radde et al., 2005). […] These conditions should be suitable to provide insight, whether initial formation of plaques or downstream processes reversing existing plaque loads are involved in corresponding drug effects.

[2] = ACI-91 and ACI-92 levels in plasma, CSF and brain homogenates of transgenic mice; format: in vivo, mouse; details: for concentration in brain as % of plasma concentration / Kp at 33 days: 100 mg/kg ACI-91 or 50 mg/kg ACI-92, 33 days; for Kp at 33 days: mouse, brain homogenate, oral, read-out: concentration in brain as % of plasma concentration
Method: Determination of ACI-91 and ACI-92 in mouse plasma, CSF and brain homogenate samples was done by HPLC-MS/MS by Quality Assistance SA, Technoparc de Thudinie 2, B-6536 Donstiennes, Belgium.
The amounts of ACI-91 and of ACI-92 in plasma, CSF and in brain homogenates is determined after treatment of hAPP single transgenic mice (JSW, Graz) and hAPP-PS1 double-transgenic mice (Synovo, Tübingen), respectively, for 33 days with doses of 1, 5, 20 and 100 mg/kg of ACI-91 and 50 mg/kg ACI-92 and doses of 100 mg/kg of ACI-91 and 50 mg/kg ACI-92, respectively.

hAPP Tg mice (APP751S/L) = experiment: Morris Water Maze in hAPP Tg mice; format: in vivo, mouse; details: for performance in Morris Water Maze: other concentration of AC-91 (not 1 or 20 mg/kg) or Compounds B; for probe trial: crossings over the former target position: 1 mg/kg, versus Tween 80 vehicle group
Method: Therefore, mice were treated for 33 days and in the end of the treatment period behavior was evaluated in the Morris Water Maze and additionally a Object Recognition Task.
Female Tg and nTg mice with a C57BL/6×DBA background and an age of 7 months (±2 week) were randomly assigned to treatment groups 1 to 9 (n=20 for groups 3 to 7, n=15 for groups 1, 2, 8 and 9). […] All animals which were used for the present study had dark eyes and were likely to perceive the landmarks outside the MWM pool. However, it had to be excluded that seeing abilities of an animal were poor, which was controlled in the visible platform training, the so called pretest, before treatment start for all animals including reserves enclosed to the study. In case a seeing handicap for a specific animal would have been affirmed, the mouse would have been excluded from the study.
Compounds or vehicle were administered via oral gavage in a daily volume of 10 ml/kg/b.w. for 33 days.
The Morris Water Maze task was conducted in a black circular pool of a diameter of 100 cm. Tap water was filled in with a temperature of 22±1° C. and the pool was virtually divided into four sectors. A transparent platform (8 cm diameter) was placed about 0.5 cm beneath the water surface. During the whole test session, except the pretest, the platform was located in the southwest quadrant of the pool.
One day before the 4 days lasting training session animals had to perform a so called “pre-test” (two 60 sec lasting trials) to ensure that the seeing abilities of each animal were normal. Only animals that fulfilled this task were enclosed to the MWM testing.
In the MWM task, each mouse had to perform three trials on four consecutive days. A single trial lasted for a maximum of one minute. During this time, the mouse had the chance to find the hidden, diaphanous target. If the animal could not find a “way” out of the water, the investigator guided to or placed the mouse on the platform. After each trial mice were allowed to rest on the platform for 10-15 sec.
During this time, the mice had the possibility to orientate in the surrounding. Investigations took place under dimmed light conditions, to prevent the tracking system from negative influences (Kaminski; PCS, Biomedical Research Systems). On the walls surrounding the pool, posters with black, bold geometric symbols (e.g. a circle and a square) were fixed which the mice could use the symbols as landmarks for their orientation.
One swimming group per trial consisted of five to six mice, so that an intertrial time of about five to ten minutes was ensured. For the quantification of escape latency (the time [second]−the mouse needed to find the hidden platform and therefore to escape from the water), of pathway (the length of the trajectory [meter] to reach the target) and of the abidance in the goal quadrant a computerized tracking system was used. The computer was connected to a camera placed above the centre of the pool. The camera detected the signal of the light emitting diode (LED), which was fixed with a little hairgrip on the mouse's tail.
Twenty-four hours after the last trial on day 4 the mice had to fulfil a so-called probe trial. At this time, the platform was removed from the pool and during the one-minute probe trial; the experimenter counted the number of crossings over the former target position. Additionally the abidance in this quadrant as well as the three other quadrants was calculated. Through out this trial a mouse could not get any, howsoever natured, clue from the platform.

in vivo = details: rat
Method: AC-92 was prepared in DMSO and diluted in sterile phosphate buffered saline (final DMSO concentration 1.0%). […] Animals were sacrificed at 3 and 6 hours after dosing via lethal narcosis. Blood was sampled via cardiac puncture. Serum was prepared by allowing whole blood to stand at 4° C. for 60 min; plasma was prepared using heparin as the anti-coagulant. CSF was collected via the foramen magnum immediately after sacrifice. Brain material was collected by opening of the skull and simple excision of the right cortex. Samples were snap frozen using liquid nitrogen immediately after collection. All procedures were conducted in conformity with applicable German and EU laws on animal experimentation and the study was approved by a government appointed ethics committee.
To determine the extent of central exposure, bioavailability studies were undertaken.

SMILES: O=C1Nc2cccnc2Nc2ccccc21 [AC-92, LS-75]
- tolerability of the treatment [1]: well tolerated
- increase of amyloid load as % of that expected with normal progression of the model (APPPS1 transgenic mice): 55%
- increase of amyloid load as % of that expected with normal progression of the model (APPPS1 transgenic mice; listed as formula III): about 60%
- plaque volume and area smaller than vehicle-treated controls (APPPS1 transgenic mice; month 2-3): about 26%
- plaque volume and area smaller than vehicle-treated controls (APPPS1 transgenic mice; month 4-5): about 26%
- β-amyloid plaque load (APPPS1 transgenic mice; daily p.o. 50 mg/kg AC-92 or 100 mg/kg AC-91 for one month, between months 1 and 5 after birth): substantial reductions
- amyloid load (APPPS1 transgenic mice; treated animals after 3 months, 50 mg/kg daily p.o.): 0.61%
- concentration in brain as % of plasma concentration ([2]; 4 months old double transgenic mice): about 5%
- concentration in CSF as % of plasma concentration ([2]; 4 months old double transgenic mice, listed as ACI92): 20%
- concentration in brain as % of plasma concentration ([2]; 8 months old single transgenic mice): 11%
- Kp at 33 days ([2]; hAPP single transgenic, 8 months old single transgenic mice): ~0.11
- Kp at 33 days ([2]; hAPP-PS1 double-transgenic, 4 months old double transgenic mice): ~0.05
- Morris Water Maze / probe trial versus Tween 80 vehicle mice (hAPP Tg mice (APP751S/L); AC-92 treated mice): no difference to the Tween 80 mice
- performance in Morris Water Maze (hAPP Tg mice (APP751S/L)): weak performance similar to that observed in the historic tg group
- Kp (in vivo; male, Lewis, ip, 50 mg/kg): ~0.25
- concentration at 3 h (in vivo; male, Lewis, po, 50 mg/kg): ~20 nM
- concentration at 6 h (in vivo; male, Lewis, po, 50 mg/kg): ~75 nM
- enrichment in the brain (in vivo; po): enriched in the brain to a certain extent

SMILES: O=C1Nc2cccnc2N(C(=O)CN2CCNCC2)c2ccccc21 [des-methyl-AC-91]
- detection in CSF (in vivo; po, 50 mg/kg): No AC-91 or dm-AC-91 was detected

SMILES: CN1CCN(CC(=O)N2c3ccccc3C(=O)Nc3cccnc32)CC1 [AC-91, pirenzepine]
- escape latency in Morris Water Maze (hAPP Tg mice (APP751S/L); 1 mg/kg daily oral, 33 days): reduced relatively to the historic group
- probe trial: crossings over the former target position (hAPP Tg mice (APP751S/L)): significantly (p<0.05) more often
- probe trial: crossings over the former target position (hAPP Tg mice (APP751S/L); listed as formula II): significantly more often
- escape latency in Morris Water Maze (hAPP Tg mice (APP751S/L); 20 mg/kg daily oral, 33 days): comparable escape latency to the ntg vehicle treated mice; also recorded: reduced relatively to the historic group
- escape latency in Morris Water Maze (hAPP Tg mice (APP751S/L); 20 mg/kg daily oral, 33 days, listed as formula II): comparable escape latency to the non transgenic vehicle treated mice
- memory performance (hAPP Tg mice (APP751S/L); dose escalation to 100 mg/kg): didn't improve memory performance
- performing the Morris Water Maze task compared to the historic group (hAPP Tg mice (APP751S/L); hAPP Tg mice, 33 days): led to an improvement
- performance in Morris Water Maze (hAPP Tg mice (APP751S/L)): weak performance similar to that observed in the historic tg group
- half-life (in vivo; male, Lewis, po): ~12 h
